Data as given in PubChem BioAssay (NCI).
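The compound was tested at five concentrations on cells cultured in 96-well plates, with a 48-hour exposure period. GI50: concentration for 50% inhibition of growth. At the TGI there is no net growth.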

Assays:
Assay in all cases: growth of human tumour cells (NCI), 48 h
786-0 renal = tested on: 786-0 renal
A498 renal = tested on: A498 renal
A549 NSCLC = tested on: A549 NSCLC
ACHN renal = tested on: ACHN renal
BT-549 breast = tested on: BT-549 breast
CAKI-1 renal = tested on: CAKI-1 renal
CCRF-CEM leukemia = tested on: CCRF-CEM leukemia
COLO 205 colon = tested on: COLO 205 colon
DU-145 prostate = tested on: DU-145 prostate
EKVX NSCLC = tested on: EKVX NSCLC
HCC-2998 colon = tested on: HCC-2998 colon
HCT-116 colon = tested on: HCT-116 colon
HCT-15 colon = tested on: HCT-15 colon
HL-60(TB) leukemia = tested on: HL-60(TB) leukemia
HOP-62 NSCLC = tested on: HOP-62 NSCLC
HOP-92 NSCLC = tested on: HOP-92 NSCLC
HS 578T breast = tested on: HS 578T breast
HT29 colon = tested on: HT29 colon
IGROV1 ovarian = tested on: IGROV1 ovarian
K-562 leukemia = tested on: K-562 leukemia
KM12 colon = tested on: KM12 colon
LOX IMVI melanoma = tested on: LOX IMVI melanoma
M14 melanoma = tested on: M14 melanoma
MALME-3M melanoma = tested on: MALME-3M melanoma
MCF7 breast = tested on: MCF7 breast
MDA-MB-231 breast = tested on: MDA-MB-231 breast
MDA-MB-435 = tested on: MDA-MB-435
MOLT-4 leukemia = tested on: MOLT-4 leukemia
NCI-H226 lung = tested on: NCI-H226 lung
NCI-H23 lung = tested on: NCI-H23 lung
NCI-H460 lung = tested on: NCI-H460 lung
NCI-H522 lung = tested on: NCI-H522 lung
NCI/ADR-RES ovarian = tested on: NCI/ADR-RES ovarian
OVCAR-3 ovarian = tested on: OVCAR-3 ovarian
OVCAR-4 ovarian = tested on: OVCAR-4 ovarian
OVCAR-5 ovarian = tested on: OVCAR-5 ovarian
OVCAR-8 ovarian = tested on: OVCAR-8 ovarian
PC-3 prostate = tested on: PC-3 prostate
RPMI-8226 leukemia = tested on: RPMI-8226 leukemia
RXF 393 renal = tested on: RXF 393 renal
SF-268 CNS = tested on: SF-268 CNS
SF-295 CNS = tested on: SF-295 CNS
SF-539 CNS = tested on: SF-539 CNS
SK-MEL-2 melanoma = tested on: SK-MEL-2 melanoma
SK-MEL-28 melanoma = tested on: SK-MEL-28 melanoma
SK-MEL-5 melanoma = tested on: SK-MEL-5 melanoma
SK-OV-3 ovarian = tested on: SK-OV-3 ovarian
SN12C renal = tested on: SN12C renal
SNB-19 CNS = tested on: SNB-19 CNS
SNB-75 CNS = tested on: SNB-75 CNS
SW-620 colon = tested on: SW-620 colon
T-47D breast = tested on: T-47D breast
TK-10 renal = tested on: TK-10 renal
U251 CNS = tested on: U251 CNS
UACC-257 melanoma = tested on: UACC-257 melanoma
UACC-62 melanoma = tested on: UACC-62 melanoma
UO-31 renal = tested on: UO-31 renal

`CS(=O)(=O)Nc1cccc(-c2cc(-c3ccccc3Cl)c(C#N)c(N)n2)c1` gave a GI50 (786-0 renal) of 803 nM, a TGI (786-0 renal) of 14400 nM and a GI50 (A498 renal) of 669 nM. The TGI (A498 renal) was 14400 nM, the GI50 (A549 NSCLC) was 655 nM and the TGI (A549 NSCLC) was 16600 nM. For the same compound, the GI50 (ACHN renal) was 679 nM, the TGI (ACHN renal) was 17600 nM and the GI50 (BT-549 breast) was 532 nM. The TGI (BT-549 breast) was 15400 nM, the GI50 (CAKI-1 renal) was 502 nM and the TGI (CAKI-1 renal) was 24400 nM. The GI50 (CCRF-CEM leukemia) was 562 nM, the TGI (CCRF-CEM leukemia) was over 82400 nM and the GI50 (COLO 205 colon) was 472 nM. It also gave a TGI (COLO 205 colon) of 4880 nM, a GI50 (DU-145 prostate) of 1170 nM and a TGI (DU-145 prostate) of 13000 nM. It also gave a GI50 (EKVX NSCLC) of 2380 nM, a TGI (EKVX NSCLC) of 21400 nM and a GI50 (HCC-2998 colon) of 1360 nM. It also gave a TGI (HCC-2998 colon) of 8520 nM, a GI50 (HCT-116 colon) of 448 nM and a TGI (HCT-116 colon) of 11800 nM. It also gave a GI50 (HCT-15 colon) of 402 nM, a TGI (HCT-15 colon) of 15800 nM and a GI50 (HL-60(TB) leukemia) of 361 nM. It also gave a TGI (HL-60(TB) leukemia) of 13400 nM, a GI50 (HOP-62 NSCLC) of 558 nM and a TGI (HOP-62 NSCLC) of 16600 nM. For the same compound, the GI50 (HOP-92 NSCLC) was 1110 nM, the TGI (HOP-92 NSCLC) was 16000 nM and the GI50 (HS 578T breast) was 321 nM. For the same compound, the TGI (HS 578T breast) was 6620 nM, the GI50 (HT29 colon) was 389 nM and the TGI (HT29 colon) was 11900 nM. It also gave a GI50 (IGROV1 ovarian) of 769 nM, a TGI (IGROV1 ovarian) of 22600 nM and a GI50 (K-562 leukemia) of 344 nM. For the same compound, the TGI (K-562 leukemia) was over 100000 nM, the GI50 (KM12 colon) was 443 nM and the TGI (KM12 colon) was 13100 nM. The GI50 (LOX IMVI melanoma) was 531 nM, the TGI (LOX IMVI melanoma) was 17400 nM and the GI50 (M14 melanoma) was 464 nM. It also gave a TGI (M14 melanoma) of 14600 nM, a GI50 (MALME-3M melanoma) of 3230 nM and a TGI (MALME-3M melanoma) of 25000 nM. For the same compound, the GI50 (MCF7 breast) was 478 nM, the TGI (MCF7 breast) was 14300 nM and the GI50 (MDA-MB-231 breast) was 712 nM. For the same compound, the TGI (MDA-MB-231 breast) was 15500 nM, the GI50 (MDA-MB-435) was 165 nM and the TGI (MDA-MB-435) was 1760 nM. The GI50 (MOLT-4 leukemia) was 894 nM, the TGI (MOLT-4 leukemia) was over 51500 nM and the GI50 (NCI-H226 lung) was 10200 nM. For the same compound, the TGI (NCI-H226 lung) was 32300 nM, the GI50 (NCI-H23 lung) was 651 nM and the TGI (NCI-H23 lung) was 19500 nM. For the same compound, the GI50 (NCI-H460 lung) was 417 nM, the TGI (NCI-H460 lung) was 11500 nM and the GI50 (NCI-H522 lung) was 294 nM. For the same compound, the TGI (NCI-H522 lung) was 3890 nM, the GI50 (NCI/ADR-RES ovarian) was 552 nM and the TGI (NCI/ADR-RES ovarian) was over 22200 nM. For the same compound, the GI50 (OVCAR-3 ovarian) was 298 nM, the TGI (OVCAR-3 ovarian) was 2800 nM and the GI50 (OVCAR-4 ovarian) was 1920 nM. It also gave a TGI (OVCAR-4 ovarian) of 35600 nM, a GI50 (OVCAR-5 ovarian) of 3220 nM and a TGI (OVCAR-5 ovarian) of 19900 nM. The GI50 (OVCAR-8 ovarian) was 1050 nM, the TGI (OVCAR-8 ovarian) was 19900 nM and the GI50 (PC-3 prostate) was 531 nM. The TGI (PC-3 prostate) was 14100 nM, the GI50 (RPMI-8226 leukemia) was 702 nM and the TGI (RPMI-8226 leukemia) was 27500 nM. It also gave a GI50 (RXF 393 renal) of 328 nM, a TGI (RXF 393 renal) of 2270 nM and a GI50 (SF-268 CNS) of 1050 nM. For the same compound, the TGI (SF-268 CNS) was 19100 nM, the GI50 (SF-295 CNS) was 411 nM and the TGI (SF-295 CNS) was 12900 nM. For the same compound, the GI50 (SF-539 CNS) was 361 nM, the TGI (SF-539 CNS) was 2720 nM and the GI50 (SK-MEL-2 melanoma) was 602 nM. The TGI (SK-MEL-2 melanoma) was 15800 nM, the GI50 (SK-MEL-28 melanoma) was 1220 nM and the TGI (SK-MEL-28 melanoma) was 19900 nM. The GI50 (SK-MEL-5 melanoma) was 448 nM, the TGI (SK-MEL-5 melanoma) was 13600 nM and the GI50 (SK-OV-3 ovarian) was 737 nM. For the same compound, the TGI (SK-OV-3 ovarian) was 13800 nM, the GI50 (SN12C renal) was 722 nM and the TGI (SN12C renal) was 24400 nM. For the same compound, the GI50 (SNB-19 CNS) was 859 nM, the TGI (SNB-19 CNS) was 19600 nM and the GI50 (SNB-75 CNS) was 239 nM. For the same compound, the TGI (SNB-75 CNS) was 2440 nM, the GI50 (SW-620 colon) was 425 nM and the TGI (SW-620 colon) was 16700 nM. The GI50 (T-47D breast) was 695 nM, the TGI (T-47D breast) was 14600 nM and the GI50 (TK-10 renal) was 1150 nM. The TGI (TK-10 renal) was 18500 nM, the GI50 (U251 CNS) was 531 nM and the TGI (U251 CNS) was 15400 nM. The GI50 (UACC-257 melanoma) was 500 nM, the TGI (UACC-257 melanoma) was 21400 nM and the GI50 (UACC-62 melanoma) was 510 nM. It also gave a TGI (UACC-62 melanoma) of 15500 nM, a GI50 (UO-31 renal) of 984 nM and a TGI (UO-31 renal) of 17400 nM.
